ChEMBL document CHEMBL1201862, “PubChem BioAssay data set” (2004)
The source made the active and inactive calls.

How the values were obtained:
[1] = biological target: T1, Small ubiquitin-related modifier 1 (Homo sapiens, UniProt P63165); assay: inhibitors of SUMO1 partner interactions, dose response, biochemical, FRET (AID 624383); format: functional; details: read-out: IC50_Mean
[2] = biological target: DNA dC->dU-editing enzyme APOBEC-3G (Homo sapiens, UniProt Q9HC16); assay: Dose Response confirmation of small molecule APOBEC3G DNA Deaminase Inhibitors via a fluorescence-based single-stranded DNA deaminase assay. [Related pubchem assays (depositor defined):AID493012, AID493028]; format: functional
[3] = biological target: T1, Small ubiquitin-related modifier 1; assay: inhibitors of SUMO1 peptide binding, dose response, biochemical, fluorescence polarization, uHTS hits (AID 624382); format: functional; details: read-out: IC50_Mean
[4] = biological target: T2, Apoptotic protease-activating factor 1 (Homo sapiens, UniProt O14727); assay: activation of Apaf-1 mediated apoptosis – fluorescent, uHTS hits, dose response (AID 588554); format: functional
T2 sequence (O14727 whole entry): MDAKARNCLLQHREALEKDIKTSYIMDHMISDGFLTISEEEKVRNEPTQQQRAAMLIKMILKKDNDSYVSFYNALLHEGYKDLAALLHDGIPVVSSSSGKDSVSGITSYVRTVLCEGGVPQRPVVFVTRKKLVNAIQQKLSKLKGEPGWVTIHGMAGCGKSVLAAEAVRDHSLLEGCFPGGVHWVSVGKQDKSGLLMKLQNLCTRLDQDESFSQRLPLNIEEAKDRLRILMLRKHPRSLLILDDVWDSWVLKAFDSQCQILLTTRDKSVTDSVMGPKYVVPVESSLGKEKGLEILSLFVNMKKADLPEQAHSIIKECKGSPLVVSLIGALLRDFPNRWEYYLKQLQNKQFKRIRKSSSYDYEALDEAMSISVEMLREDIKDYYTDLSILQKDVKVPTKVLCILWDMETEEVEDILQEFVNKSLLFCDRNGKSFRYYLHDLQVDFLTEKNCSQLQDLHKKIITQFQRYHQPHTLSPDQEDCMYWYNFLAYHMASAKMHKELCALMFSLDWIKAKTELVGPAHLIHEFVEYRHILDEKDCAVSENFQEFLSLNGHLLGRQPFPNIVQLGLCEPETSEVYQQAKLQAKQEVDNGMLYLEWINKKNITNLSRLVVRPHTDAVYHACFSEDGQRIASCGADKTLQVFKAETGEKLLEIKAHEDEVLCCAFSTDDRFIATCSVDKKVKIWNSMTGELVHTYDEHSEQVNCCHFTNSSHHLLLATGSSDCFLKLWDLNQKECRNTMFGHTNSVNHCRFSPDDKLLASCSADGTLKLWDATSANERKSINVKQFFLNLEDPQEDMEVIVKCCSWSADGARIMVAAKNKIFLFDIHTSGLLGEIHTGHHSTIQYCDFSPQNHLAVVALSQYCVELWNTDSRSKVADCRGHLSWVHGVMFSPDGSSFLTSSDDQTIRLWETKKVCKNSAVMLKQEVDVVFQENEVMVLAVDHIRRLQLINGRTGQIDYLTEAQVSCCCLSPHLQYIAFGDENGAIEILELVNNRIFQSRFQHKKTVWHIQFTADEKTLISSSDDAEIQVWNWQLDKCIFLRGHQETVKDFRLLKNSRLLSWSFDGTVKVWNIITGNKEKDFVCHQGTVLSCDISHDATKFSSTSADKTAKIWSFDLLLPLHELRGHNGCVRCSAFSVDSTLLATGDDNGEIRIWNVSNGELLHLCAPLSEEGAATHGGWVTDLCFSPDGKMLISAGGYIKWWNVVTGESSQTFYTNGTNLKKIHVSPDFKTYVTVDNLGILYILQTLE

[5] = biological target: DNA dC->dU-editing enzyme APOBEC-3A (Homo sapiens, UniProt P31941); assay: APOBEC3A DNA deaminase inhibitors, dose response, biochemical (AID 504722); format: functional
[6] = biological target: Dual specificity protein kinase CLK1 (Homo sapiens, UniProt P49759); assay: CLK1 kinase inhibitors, off-target check, dose response, selectivity assay for Dyrk1A inhibitor project, biochemical, cherry-picked samples (AID 588811)
CAAX prenyl protease 2 [7] = biological target: T3, CAAX prenyl protease 2 (Saccharomyces cerevisiae S288c, UniProt Q03530); format: biochemical
T3 sequence (Q03530 whole entry): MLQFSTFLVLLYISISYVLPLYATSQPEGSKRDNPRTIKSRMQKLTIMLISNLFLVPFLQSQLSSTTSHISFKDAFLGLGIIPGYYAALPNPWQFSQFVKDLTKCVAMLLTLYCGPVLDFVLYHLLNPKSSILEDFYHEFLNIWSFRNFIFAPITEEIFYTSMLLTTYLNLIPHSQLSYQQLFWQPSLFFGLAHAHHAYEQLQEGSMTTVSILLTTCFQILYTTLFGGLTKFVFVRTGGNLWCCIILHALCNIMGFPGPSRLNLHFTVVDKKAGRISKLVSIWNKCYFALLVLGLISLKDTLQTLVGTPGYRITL

CAAX prenyl protease 2 [8] = biological target: CAAX prenyl protease 2 (Homo sapiens, UniProt Q9Y256); assay: human Rce1 protease inhibitors, dose response, biochemical, yeast membranes, quenched-peptide fluorescence, cherry-pick (AID 588849)
[9] = mammalian cell cytotoxicity, dose response, cytotoxicity control, plate reader, cherry-pick samples (AID 504397); format: functional, cell-based

T1 sequence (P63165 whole entry): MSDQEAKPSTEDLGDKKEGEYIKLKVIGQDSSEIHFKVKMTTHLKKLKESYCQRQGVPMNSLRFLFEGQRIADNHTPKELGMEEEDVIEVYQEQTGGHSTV
Sequence of Dual specificity protein kinase CLK1 (P49759 whole entry): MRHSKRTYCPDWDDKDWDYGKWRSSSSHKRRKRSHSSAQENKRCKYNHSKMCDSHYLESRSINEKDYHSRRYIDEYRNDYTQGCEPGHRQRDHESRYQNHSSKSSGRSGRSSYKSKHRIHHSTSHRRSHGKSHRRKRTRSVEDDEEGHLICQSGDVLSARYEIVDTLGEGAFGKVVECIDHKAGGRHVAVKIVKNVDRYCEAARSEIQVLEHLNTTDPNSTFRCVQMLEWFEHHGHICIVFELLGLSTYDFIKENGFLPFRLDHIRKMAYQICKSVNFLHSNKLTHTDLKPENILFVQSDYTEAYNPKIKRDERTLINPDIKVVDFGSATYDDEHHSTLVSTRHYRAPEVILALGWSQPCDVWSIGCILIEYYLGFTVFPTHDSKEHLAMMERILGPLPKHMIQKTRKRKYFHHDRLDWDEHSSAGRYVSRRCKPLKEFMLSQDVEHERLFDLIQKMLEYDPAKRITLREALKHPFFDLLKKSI
Sequence of DNA dC->dU-editing enzyme APOBEC-3G (Q9HC16 whole entry): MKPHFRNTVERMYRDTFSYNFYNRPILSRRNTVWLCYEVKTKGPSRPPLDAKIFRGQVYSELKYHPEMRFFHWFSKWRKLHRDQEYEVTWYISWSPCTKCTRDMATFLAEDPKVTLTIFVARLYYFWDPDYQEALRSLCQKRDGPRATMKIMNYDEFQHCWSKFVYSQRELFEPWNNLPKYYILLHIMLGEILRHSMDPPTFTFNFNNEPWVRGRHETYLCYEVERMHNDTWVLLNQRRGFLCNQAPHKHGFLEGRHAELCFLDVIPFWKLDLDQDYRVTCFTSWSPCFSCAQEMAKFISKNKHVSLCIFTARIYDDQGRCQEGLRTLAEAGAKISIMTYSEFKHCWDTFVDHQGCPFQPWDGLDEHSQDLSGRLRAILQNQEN
Sequence of DNA dC->dU-editing enzyme APOBEC-3A (P31941 whole entry): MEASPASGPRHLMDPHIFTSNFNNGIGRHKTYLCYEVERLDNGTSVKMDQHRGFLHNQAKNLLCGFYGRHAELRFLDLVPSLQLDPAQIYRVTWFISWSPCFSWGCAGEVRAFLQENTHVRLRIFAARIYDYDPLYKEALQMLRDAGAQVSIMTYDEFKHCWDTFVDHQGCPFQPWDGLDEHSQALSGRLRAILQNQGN
Sequence of CAAX prenyl protease 2 (Homo sapiens, UniProt Q9Y256) (Q9Y256 whole entry): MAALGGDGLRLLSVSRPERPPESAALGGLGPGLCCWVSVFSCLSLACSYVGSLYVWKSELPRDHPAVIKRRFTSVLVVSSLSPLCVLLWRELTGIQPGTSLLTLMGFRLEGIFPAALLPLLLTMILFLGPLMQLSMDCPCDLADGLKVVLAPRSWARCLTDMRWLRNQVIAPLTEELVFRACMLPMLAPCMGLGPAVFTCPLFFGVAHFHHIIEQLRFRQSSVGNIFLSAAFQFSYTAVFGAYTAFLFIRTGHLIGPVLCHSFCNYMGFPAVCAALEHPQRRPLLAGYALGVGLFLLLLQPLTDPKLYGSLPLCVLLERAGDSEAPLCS

For C=C(C)C(=O)Nc1cccc(C2=NOC3(C2)C[C@H](C(N)=O)N(C(=O)c2ccccc2C(=O)c2ccccc2)C3)c1 (some centres undefined), the IC50 [1] was 2.73 µM (active), the IC50 [2] was 8.19 µM (active) and the IC50 [3] was > 66.6 µM (inactive). The EC50 [4] was 3.71 µM (active) and the IC50 [5] was > 100 µM (inactive).

With CN(Cc1nccs1)c1ncnc2ccc(-c3ccc4c(c3)OCO4)cc12 the AC50 [6] was < 0.00195 µM (active).

For Clc1ccc(CN2CCc3c([nH]c4ccccc34)C2)cc1Cl, the AC50 (CAAX prenyl protease 2 [7]) was 2.03 µM (active), the AC50 (CAAX prenyl protease 2 [8]) was 13.9 µM (active) and the AC50 [9] was 18.3 µM (active).
